Consider 91 compounds from a melting point compilation (Tetko et al.; mined from patent text by program, amines drawn as free bases though some values may be those of a salt).

`FC(F)(F)c1cccc(N2CCC(N=Cc3cccc4ccccc34)=N2)c1`: the melting point (commonly the temperature of the solid-liquid transition) was 173 °C.
Then `Cn1c([N+](=O)[O-])cnc1C=Cc1cccc(C(N)=O)c1`, with 254 to 256 °C; and `O=[N+]([O-])N=C1NC(O)CN1Cc1ccc(Cl)nc1` (stereo unspecified), with 170 °C; and `CC(C=NO)n1nnc2ccc(Oc3cc(F)c(C(F)(F)F)c(Cl)c3)cc21` (stereo unspecified), with 148 to 151 °C.
For `NCc1cccc(CNC(=O)C2Cc3ccccc3N2S(=O)(=O)c2ccc(-c3cccc(C(F)(F)F)c3)cc2)c1` (stereo unspecified) the value was 116 °C; for `O=C1c2ccccc2C(=O)c2c1oc1ccc3cc(O)ccc3c21`, 318 °C; for `O=C(O)Cc1ccc([N+](=O)[O-])cc1CC(=O)O`, 187 to 188 °C.
For `Cc1nc(-n2cnn(CC3CC3)c2=O)sc1C(=O)NCc1cc[nH]n1` the value was 167 to 168 °C.
For `O=C(O)c1nc(-c2ccccc2)n2c1CN=C(c1ccccc1F)c1cc(Cl)ccc1-2`, the melting point lay in the range of 267 to 269 °C.
Then `COc1ccccc1CNc1cccnc1-c1ccccc1`, with 122 to 125 °C.
For the compound `O=c1cc(-c2ccncc2)cc[nH]1`, the melting point is 263 to 265 °C.
For `Cc1cc(C(C)C)cc(C)c1CO` the value was 75 to 77 °C.
For `Cc1cc2c(cc1C1=NNC(=O)SC1C)C(C)(C)C(=O)N2` (stereo unspecified) the value was 240 °C.
`Cc1cc(C(N)=O)ncc1C(c1c(F)ccc(F)c1F)S(=O)(=O)c1ccc(C(F)(F)F)nc1` (stereo unspecified) returned a melting point of 237 to 238 °C.
As to `NC(=O)N1CCCC2=C1CCc1cc(Cl)ccc12`, the melting point was in the range of 169 to 171 °C.
For `CCSC(=NC(=O)N(C)C)NC(=O)NC` the value was 109 to 112 °C; for `CCOC(=O)N1CCN(c2ncc(F)c(SC)n2)CC1`, 110 to 112 °C; for `O=c1[nH]c2cc(-n3cnc4c3CCCC4)c([N+](=O)[O-])cc2[nH]c1=O`, above 300 °C.
Then `CC1(c2cc(NC(=O)Nc3ccc(OCCN4CCOCC4)c4ccccc34)n(-c3ccccc3)n2)CCCCC1`, with 147 to 149 °C; and `CCOC1=NS(=O)(=O)C(C#N)=C1OCC`, with 147 to 148 °C; and `Cc1cccc(Nn2c(C)c(C)[nH]c2=S)c1`, with 230 °C.
Then `CN(NC(=O)OCc1ccccc1)C(=O)c1cc(OCc2ccccc2)c(OCc2ccccc2)c(CNC(=O)OC(C)(C)C)n1`, with 125 to 127 °C.
The compound `Cc1cccc(S(=O)(=O)n2c(CCC(=O)O)cc3cc(Cl)ccc32)c1` gave a melting point of 161 to 165 °C.
For `Cc1nc2c(O)cc(C(=O)N(C)C)cc2n1C` the value was 248 °C; for `CC1(C)C=CN(C(=O)Nc2ccccc2)C=C1`, 128 to 130 °C.
As to `Cc1cccc(-c2n[nH]cc2-c2ccnc(-c3ccc(Cl)cc3)c2)n1`, the melting point is 190 °C.
Compound `COCCOC(=O)NC(=O)CCl` registered a melting point of 97 to 99 °C.
`CSc1ccc(C=CC(N)=O)cc1` returned a melting point of 193 °C.
Take `Cc1nc(C=O)c2n1-c1ccc(Cl)cc1C(c1ccccc1Cl)=NC2`: the melting point fell in the range of 237 to 239 °C.
Then `CCON=C(CC)C1=C(O)CC(c2cc3c(cc2[N+](=O)[O-])OCO3)CC1=O` (stereo unspecified), with 122 °C.
For `CCCCOCCOc1ccc(-c2ccc3c(c2)C=C(C(=O)Nc2ccc(/C(Cc4nccn4CCC)=N/OC)cc2)CCN3CC(C)C)cc1` the value was 159 to 161 °C.
Regarding `CC(=O)Oc1cc(C)cc(C(=O)Cl)c1C`, the melting point is 52 to 54 °C.
Take `CCOC(=O)c1cc(Cl)c(-n2ncc(C)n2)c(Cl)c1`: the melting point is 136 to 138 °C.
`COc1ccc2c(c1)c1c(n2C)CC(C(N)=O)C1` (stereo unspecified) gave a melting point of 178 to 180 °C.
Compound `Nc1ccc(S(=O)(=O)CCO)cc1C(=O)O` showed a melting point of 164 to 167 °C.
For `OC(CCCc1cccnc1)COc1ccc(C=Cc2ccccc2)cc1` (stereo unspecified) the value was 110 to 111 °C; for `CCc1cccc2nc(N[C@@H](CC(C)C)C(=O)OC)oc(=O)c12`, 74 to 76 °C.
Then `S=c1[nH]cnc2c(Br)csc12`, with 328 °C; and `O[C@H]1CSC(c2ccccc2)=N[C@@H]1c1ccccc1` (racemic), with 142 °C.
Compound `COc1ccc(N2CCN(c3c(C)c(C)c4c(c3C)CC(C)(C)O4)CC2)cc1C` gave a melting point of 137 to 141 °C.
Then `CCCCn1cnnc1SC(=O)c1ccoc1`, with 102 to 105 °C; and `Cc1c(C)c2c(c(C)c1NC(=O)OC(C)(C)C)C(=O)C(C)(C)O2`, with 105 to 106 °C.
With `CCCN(CCC)C1Cc2cc(C)cc3ncn(c23)C1` (stereo unspecified), the melting point is 91 to 94 °C.
For `COc1cc(NC(NC(C)C(C)(C)C)=C(C#N)S(=O)(=O)c2ccc(Cl)cc2)cc(OC)c1` (stereo unspecified) the value was 178 to 179 °C; for `COC(=N)c1ccc(C(=O)O)cn1`, 284 to 286 °C.
For `COc1c(O)c(C)c2c(c1OC)Nc1ccccc1S2` the value was 218 to 220 °C; for `CCOC(=O)c1ccc(C=C(CCCc2ccc(C(=O)O)cc2)Cn2ccnc2)cc1`, 167 to 170 °C; for `O[C@@H]1CNC[C@H]1Oc1cccc2ccccc12` (relative stereo), 112 to 115 °C.
As to `CCCC1COc2cc(C3COc4cc(C#N)c(F)cc4C3)c(F)cc2C1` (stereo unspecified), the melting point is 122 °C.
For `O=C(NC1CCCCC1)N(Cc1ccc(Cl)cc1)C1CCCC1` the value was 99 to 101 °C; for `COC(=O)c1cnc(CO)n1C`, 145 to 147 °C; for `N#Cc1c(-c2cccs2)nn(-c2ccccc2)c1N`, 165 to 167 °C.
For `Cc1cccc(Nc2nc(-c3cccc(C#N)c3)c(-n3cncn3)s2)n1` the value was 236 to 237 °C; for `COc1ccc(Nc2cc(Cl)nc(SC)n2)cc1`, 128 to 131 °C.
As for `CC(C)(S)C(=O)N[C@@H](CS)C(=O)O`, the melting point fell in the range of 139 to 140 °C.
With `NC(=O)c1cn(Cc2ccccc2)c(CO)n1`, the melting point lay in the range of 204 to 207 °C.
Turning to `CN(c1cccc2cc(-c3ncc(COCC(=O)O)s3)[nH]c12)S(=O)(=O)c1cccs1`, the melting point lay in the range of 197 to 198 °C.
For `CCOc1cccc(S(=O)(=O)c2ccc(C)nc2Nc2c(C)cc(C)cc2C)c1` the value was 96 to 97 °C; for `O=S1(=O)CCC(=NO)C1=NO`, 181 °C.
The compound `O=C(Nc1ccc(SC(F)(F)F)cc1)c1ccc2c(c1O)CCCC2` yielded a melting point of 167 °C.
Regarding `CC(=O)N(CCN1CCNC1=C(C#N)C#N)Cc1ccc(CN2CCCCC2)o1`, the melting point lay in the range of 166 to 167 °C.
Take `CC(NC(=O)Cc1cc(F)cc(F)c1)C(=O)NC1(F)NC(=O)Cc2ccccc21` (stereo unspecified): the melting point is 195 to 200 °C.
Regarding `COc1ccc(CC(NC(c2ccccc2)c2ccccc2)P(O)O)cc1` (stereo unspecified), the melting point was in the range of 199 to 202 °C.
Then `CC(NC(=O)c1cccnc1Oc1ccc(F)cc1)c1ccc(Cl)s1` (single isomer, unassigned; (+)), with 78 to 80 °C; and `COc1ccc(-c2c(N(C)C(C)C)c(=O)c2=O)cc1`, with 109 to 115 °C; and `O=C(CCCl)NCc1ccc2ccn(C3CCN(CCc4ccc(F)cc4)CC3)c2c1`, with 121 to 122 °C.
For `COc1cc(Br)c2c(c1OC)C(=O)CC2` the value was 180 to 182 °C.
For `COc1ccc(NC(=O)NCCCOc2cccc(CN3CCCCC3)c2)cc1` the value was 111 to 112 °C; for `COC(=O)c1ccc(OCCNC(=O)C2Cc3ccccc3N2S(=O)(=O)c2ccc(-c3ccc(F)cc3F)cc2)cc1F` (stereo unspecified), 65 to 68 °C; for `CCCC[C@@H](C)C[C@@H](CC(=O)OC(C)(C)C)C(=O)O`, 142 to 143 °C.
`Nc1ccc(-c2noc(-c3cnn4c(C(F)F)cc(-c5ccc(C(F)(F)F)c(Cl)c5)nc34)n2)cn1` gave a melting point of 252 °C.
Regarding `O=C(Nc1ccc(OC(F)(F)F)cc1)NC1CCN(C(=O)C2CC2)CC1`, the melting point fell in the range of 195 to 196 °C.
For `CC[C@@H]1NC(=O)C(F)(F)[C@@H]1O`, the melting point fell in the range of 118 to 121 °C.
For `CCOc1nc(C(F)(F)F)cc(=O)n1-c1cc(O)c(Br)cc1F` the value was 160 to 161 °C.
Then `COc1ccc2sc(C(N)=O)c(SC(C)C)c2c1`, with 143 to 144 °C.
For `CC(Oc1ccc(C(=O)O)cc1)c1ccccc1OCc1ccccc1` (stereo unspecified) the value was 203 to 204 °C; for `CCOP(=O)(Cc1cc(=O)[nH]c2cc(Cl)c(Cl)cc12)OCC`, 219 to 222 °C; for `N=C(N)NC(=O)Cn1c(C(=O)c2ccccc2)ccc1-c1ccccc1`, 201 to 203 °C.
`CCOC(=O)c1cccc(-c2nc(-c3ccc(C(C)(C)C)cc3)cs2)c1` showed a melting point of 96 to 97 °C.
For `O=C1N(c2ccc(Cl)cc2Cl)Cc2cnc(Nc3ccccc3)nc2N1c1cccc(CCN2CCOCC2)c1` the value was 118 °C; for `O=C1c2ccccc2-n2cnc(CO)c2[C@@H]2CCCN12`, 212 to 214 °C; for `CCCCCCC(O)C(=O)NCCS` (stereo unspecified), 83 to 84 °C.
For `Cc1c(-c2cn(C)c3c(-c4ccccc4)cccc23)nc2ccc(F)cc2c1C(=O)O` the value was 107 to 108 °C; for `C[N+]([O-])=C(Cn1ccnc1)c1ccc(F)cc1`, 81 to 84 °C.
As to `O=C(O)CCc1cc2nc(Cl)ccc2n1S(=O)(=O)c1ccc2c(c1)CCN2`, the melting point is 79 °C.
Then `C[Si](C)(C)OC1(C#N)CCOc2c(Cl)cc(-c3ccccc3)cc21` (stereo unspecified), with 99 to 100 °C; and `CCCCc1cc2ccc(C(=O)O)cc2o1`, with 102 to 104 °C; and `CCOC(=O)c1sc(NC(C)=O)nc1CCl`, with 164 to 165 °C.
For `CCc1ccc2c(c1)C=Cc1cc(C)ccc1C2c1cn(-c2ccnc(NCC(=O)Nc3nc(CC(=O)O)cs3)n2)c(=O)[nH]c1=O` (stereo unspecified) the value was 217 °C.
Then `FC(F)(F)c1nc(Cl)c2cc(I)ccc2n1`, with 145 to 146 °C; and `O=C(CC1CCC2(CC1)OOC1(CCCCCCCCCCC1)OO2)N1CCS(=O)(=O)CC1`, with 170 to 172 °C.
